We go through three compounds from patent US7955808B2, “Bitter taste receptors” (Deutsches Institut für Ernährungsorschung, Stiftung des …, priority 2002, dated 2011).

The target in assay [1] is T1, hTAS2R10 (Homo sapiens, UniProt Q9NYW0, T156M).
T1 construct: gene-specific primers that span the complete coding region of the individual hTAS2R genes; first 45 amino acids of rat somatostatin type 3 receptor (cell surface-targeting signal) (N); expressed in transfected cells; host or cells: HEK-293T-Gα16gustducin44 cells (alternatively HEK-293 co-transfected with phospholipase-Cβ2 and α-gustducin)
T1 sequence (Q9NYW0 1-307 T156M): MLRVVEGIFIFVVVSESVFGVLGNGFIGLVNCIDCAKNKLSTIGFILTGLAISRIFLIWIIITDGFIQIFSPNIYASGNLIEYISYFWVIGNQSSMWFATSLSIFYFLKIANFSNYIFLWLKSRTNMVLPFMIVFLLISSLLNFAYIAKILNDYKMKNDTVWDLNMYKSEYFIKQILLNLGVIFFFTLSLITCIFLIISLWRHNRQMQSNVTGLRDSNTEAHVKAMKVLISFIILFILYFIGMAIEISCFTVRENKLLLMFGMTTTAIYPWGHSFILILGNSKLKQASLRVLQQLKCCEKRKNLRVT
The assay can be described thus: FLIPR assay, heterologous expression of hTAS2R10. The assay is classed as cell-based. The conditions noted are these: hTAS2R10. From the text: (§1) Transient transfection of TAS2Rs into HEK-293T-Gα16gustducin44 cells.

Assay [2] has as its target T2, hTAS2R46 (Homo sapiens, UniProt P59540).
T2 construct: gene-specific primers that span the complete coding region of the individual hTAS2R genes; first 45 amino acids of rat somatostatin type 3 receptor (cell surface-targeting signal) (N); expressed in transfected cells; host or cells: HEK-293T-Gα16gustducin44 cells (alternatively HEK-293 co-transfected with phospholipase-Cβ2 and α-gustducin)
T2 sequence (P59540 with tags, fused parts or gaps limits assumed): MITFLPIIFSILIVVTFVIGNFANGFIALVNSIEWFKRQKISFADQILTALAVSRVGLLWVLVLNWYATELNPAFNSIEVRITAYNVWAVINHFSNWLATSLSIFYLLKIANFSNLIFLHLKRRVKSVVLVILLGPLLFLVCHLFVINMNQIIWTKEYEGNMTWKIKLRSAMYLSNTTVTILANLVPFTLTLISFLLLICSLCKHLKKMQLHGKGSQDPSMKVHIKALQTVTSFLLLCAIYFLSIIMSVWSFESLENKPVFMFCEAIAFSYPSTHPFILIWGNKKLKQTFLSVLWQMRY
Briefly: FLIPR assay, heterologous expression of hTAS2R46. It is filed as cell-based.
Description: as §1

The target of assay [3] is T3, hTAS2R48 (Homo sapiens, UniProt P59542).
T3 construct: gene-specific primers that span the complete coding region of the individual hTAS2R genes; first 45 amino acids of rat somatostatin type 3 receptor (cell surface-targeting signal) (N); expressed in transfected cells; host or cells: HEK-293T-Gα16gustducin44 cells (alternatively HEK-293 co-transfected with phospholipase-Cβ2 and α-gustducin)
T3 sequence (P59542 1-299): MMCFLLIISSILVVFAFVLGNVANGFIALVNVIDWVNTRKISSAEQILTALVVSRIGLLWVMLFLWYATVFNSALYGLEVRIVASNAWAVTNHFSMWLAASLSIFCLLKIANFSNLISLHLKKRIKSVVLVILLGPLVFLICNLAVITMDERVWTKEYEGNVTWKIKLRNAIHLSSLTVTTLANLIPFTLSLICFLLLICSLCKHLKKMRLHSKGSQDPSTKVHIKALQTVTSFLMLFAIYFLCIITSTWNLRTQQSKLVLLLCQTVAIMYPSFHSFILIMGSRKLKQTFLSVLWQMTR
The assay can be described thus: FLIPR assay, heterologous expression of hTAS2R48. It is filed as cell-based.
Description: as §1

Assay [4] concerns the target T4, hTAS2R45 (Homo sapiens, UniProt P59539).
T4 construct: gene-specific primers that span the complete coding region of the individual hTAS2R genes; first 45 amino acids of rat somatostatin type 3 receptor (cell surface-targeting signal) (N); expressed in transfected cells; host or cells: HEK-293T-Gα16gustducin44 cells (alternatively HEK-293 co-transfected with phospholipase-Cβ2 and α-gustducin)
T4 sequence (P59539 1-299): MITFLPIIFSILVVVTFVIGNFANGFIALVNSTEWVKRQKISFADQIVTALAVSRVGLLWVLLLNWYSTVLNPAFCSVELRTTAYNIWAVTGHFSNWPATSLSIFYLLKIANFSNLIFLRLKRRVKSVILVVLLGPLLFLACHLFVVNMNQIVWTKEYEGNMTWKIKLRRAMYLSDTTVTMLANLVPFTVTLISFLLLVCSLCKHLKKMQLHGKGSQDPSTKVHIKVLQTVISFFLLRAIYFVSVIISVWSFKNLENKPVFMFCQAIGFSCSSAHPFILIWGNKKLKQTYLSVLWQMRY
The assay can be described thus: FLIPR assay, heterologous expression of hTAS2R45. The assay is classed as cell-based.
Description: as §1

The target of assay [5] is hTAS2R44 (Homo sapiens, UniProt P59538, L162M). An excerpt: (§2) These cells stably express a chimeric G protein constructed from human Gα16 and rat gustducin. Finally, we seeded the transfected cells at a density of 3×10^3 cells per well into 96-well black-wall, clear-bottom microtiter plates (Greiner).
Sequence of hTAS2R44 (P59538 whole entry L162M): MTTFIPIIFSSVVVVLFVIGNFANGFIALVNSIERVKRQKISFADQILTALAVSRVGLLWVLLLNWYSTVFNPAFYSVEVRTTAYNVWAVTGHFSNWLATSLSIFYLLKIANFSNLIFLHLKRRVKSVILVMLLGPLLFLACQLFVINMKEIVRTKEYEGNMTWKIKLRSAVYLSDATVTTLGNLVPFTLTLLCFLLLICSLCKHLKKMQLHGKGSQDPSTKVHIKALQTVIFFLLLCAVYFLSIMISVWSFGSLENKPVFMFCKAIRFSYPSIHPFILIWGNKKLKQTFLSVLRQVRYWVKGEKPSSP
(§3) Co-transfection of TAS2Rs with gustducin and phospholipase-Cβ2 into HEK-293 cells. Alternatively, we transfected simultaneously plasmid DNAs encoding one of the TAS2Rs, phospholipase-Cβ2 and α-gustducin into HEK-293 cells using the lipofectamine method. […] Thereafter, the transfected cells were seeded at a density of 3×10^3 cells per well into 96-well black-wall, clear-bottom microtiter plates (Greiner).
(§4) Thereafter, cells were gently washed in HBS by an automated plate washer (Denley Cellwash, Labsystenms) and transferred to the FLIPR (Molecular Devices). The FLIPR integrates an argon laser excitation source, a 96-well pipettor, and a detection system utilizing a Charged Coupled Device imaging camera. […] Fluorescence data were collected 1 min before and 10 min after stimulation. Data were collected every 6 s before and every 1 s after agonist stimulation. 50 μl of 3× concentrated agonists were delivered within 2 by the integrated 96-well pipettor to the wells containing 100 μl HBS. Agonist responses were quantified using the amplitudes of the fluorescence peaks. We averaged the responses of five wells containing cells expressing the same receptor and that received the same stimulus. Calcium traces were determined in triplicate of mock-transfected cells stimulated with the same concentration of tastant.

The target of assay [6] is hTAS2R43 (Homo sapiens, UniProt P59537, H212R/W35S).
Sequence of hTAS2R43 (P59537 whole entry W35S/H212R): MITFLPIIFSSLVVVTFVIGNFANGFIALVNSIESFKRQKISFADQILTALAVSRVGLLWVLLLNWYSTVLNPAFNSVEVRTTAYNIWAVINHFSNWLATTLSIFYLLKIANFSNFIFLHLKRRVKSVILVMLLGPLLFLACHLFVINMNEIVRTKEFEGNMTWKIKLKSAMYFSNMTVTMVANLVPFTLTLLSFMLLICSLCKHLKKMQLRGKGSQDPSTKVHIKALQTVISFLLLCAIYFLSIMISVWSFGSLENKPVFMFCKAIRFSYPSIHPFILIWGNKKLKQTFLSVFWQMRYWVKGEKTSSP
Description: as §2, §3, §4

In assay [7] the target is T5, hTAS2R38 (Homo sapiens, UniProt P59533).
T5 construct: gene-specific primers that span the complete coding region ... contains the first 45 amino acids of the rat somatostatin type 3 receptor
T5 sequence (P59533 1-333 A49P/I296V): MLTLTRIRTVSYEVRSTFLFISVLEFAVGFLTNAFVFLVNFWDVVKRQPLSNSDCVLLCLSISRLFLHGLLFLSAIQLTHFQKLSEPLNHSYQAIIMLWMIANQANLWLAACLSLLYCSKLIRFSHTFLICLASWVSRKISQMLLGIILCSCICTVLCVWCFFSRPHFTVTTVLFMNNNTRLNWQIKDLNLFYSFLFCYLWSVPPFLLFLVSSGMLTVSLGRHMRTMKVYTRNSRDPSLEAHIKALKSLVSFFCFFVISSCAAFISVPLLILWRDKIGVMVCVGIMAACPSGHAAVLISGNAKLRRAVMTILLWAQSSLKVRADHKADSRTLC
The assay can be described thus: FLIPR assay, heterologous expression of hTAS2R38. The assay is classed as cell-based.
Description: Co-transfection of TAS2Rs with gustducin and phospholipase-Cβ2 into HEK-293 cells. Alternatively, we transfected simultaneously plasmid DNAs encoding one of the TAS2Rs, phospholipase-Cβ2 and α-gustducin into HEK-293 cells using the lipofectamine method. Additional cotransfection of G-protein β and γ-subunits may improve the bitter tastant-induced responses. Thereafter, the transfected cells were seeded at a density of 3×10^3 cells per well into 96-well black-wall, clear-bottom microtiter plates (Greiner).

Assay [8] deals with T6, hT2R4 receptor (Homo sapiens, UniProt Q9NYW5).
T6 sequence (Q9NYW5 1-299): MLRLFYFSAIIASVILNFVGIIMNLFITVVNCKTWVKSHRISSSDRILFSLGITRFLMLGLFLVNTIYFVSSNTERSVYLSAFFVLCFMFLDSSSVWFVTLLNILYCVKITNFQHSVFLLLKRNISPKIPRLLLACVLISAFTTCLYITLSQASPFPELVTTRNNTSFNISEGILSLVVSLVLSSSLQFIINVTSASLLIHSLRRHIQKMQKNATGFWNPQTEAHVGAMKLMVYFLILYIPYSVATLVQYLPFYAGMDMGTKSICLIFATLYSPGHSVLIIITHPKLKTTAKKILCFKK
The conditions noted are these: concentrations needed two orders of magnitude above human taste thresholds; cited from earlier work.

For the compound `CC1=C[C@@H]2[C@@H]3C4C(=C(C)[C@@H]3[C@@]13[C@@H]2[C@@](C)(O)CC[C@H]1[C@H](C)C(=O)O[C@@H]13)[C@H]1OC(=O)[C@@H](C)[C@@H]1CC[C@]4(C)O` (stereo partly drawn) [Absinthine], the Approx. Threshold is 0.01 mM in assay [1], 0.001 mM in assay [2], 0.03 mM in assay [3] and 0.003 mM in assay [4]. The “receptor activation (in words)” value in assay [1], in assay [2], in assay [3] and in assay [4] was “activated” in each case.

In the case of `CC1=CC(=O)NS(=O)(=O)O1` [Acesulfame K], in assay [5], the “Approx. Threshold” value worked out at 0.5 mM and the “receptor activation (in words)” value is listed as “activated”. Moreover, the “Approx. Threshold” value in assay [6] is listed as “No response up to 10 mM”.

`CCCc1cc(=O)[nH]c(=S)[nH]1` [6-Propyl-2-thiouracil]: in assay [7], the “Approx. Threshold” value worked out at 0.3 µM and the “receptor activation (in words)” value is “activated”. For the same compound, the EC50 (usually the concentration at which the effect is half-maximal) in assay [7] (read-out: EC50) came to 2000 nM. Moreover, in assay [8], the “in vitro response of the receptor” value is listed as “provided a response”.
